Experimental data taken from ChEMBL document CHEMBL5154835, “Design, synthesis and biological evaluation of sulfonamides inhibitors of XPO1 displaying activity against multiple myeloma cells” (Eur J Med Chem, 2022).
pIC50: −log10 of the molar value.

Tested on: MM1.S
Assay: Antiproliferative activity against human MM1.S cells assessed as inhibition of cell growth incubated for 4 hrs by CCK-8 assay
Assay type: functional, cell-based

SMILES	pIC50
NC(=O)/C(=C/n1cnc(-c2cc(C(F)(F)F)cc(C(F)(F)F)c2)n1)c1ccc(NS(=O)(=O)c2ccccc2)cc1	6.47
N#Cc1cn(/C=C(/C(N)=O)c2cncnc2)nc1-c1cc(C(F)(F)F)cc(C(F)(F)F)c1	5.93
NC(=O)/C(=C/n1cnc(-c2cc(C(F)(F)F)cc(C(F)(F)F)c2)n1)c1ccc(NS(=O)(=O)C2CCCCC2)cc1	5.90
COc1ccc(/C(=C\n2cnc(-c3cc(C(F)(F)F)cc(C(F)(F)F)c3)n2)C(N)=O)c(F)c1F	5.92
CS(=O)(=O)Nc1cc(C#N)cc(/C(=C\n2cnc(-c3cc(C(F)(F)F)cc(C(F)(F)F)c3)n2)C(N)=O)c1	6.08
NC(=O)/C(=C/n1cnc(-c2cc(C(F)(F)F)cc(C(F)(F)F)c2)n1)c1ccc(F)nc1F	6.18
